Patent US20210317141A1, “OXOPYRIDO[1,2-A]PYRIMIDINE COMPOUNDS FOR THE TREATMENT AND PROPHYLAXIS OF BACTERIAL INFECTION” (Hoffmann-La Roche Inc., priority 2018, published 2021)
≈ marks a conversion by molar mass, not a printed value.

Columns and labels:
[1] = Lyophilisation solubility assay (LYSA); assay type: physicochemical; conditions: aqueous buffer, thermodynamic from solid; 0.05 M phosphate buffer, pH 6.5; * = detection limit
Method: The solubility of compounds of present invention was assessed by LYSA assay. Samples were prepared in duplicate from 10 mM DMSO stock solutions (20 μL) diluted in 30 μL pure DMSO. After evaporation of DMSO with a centrifugal vacuum evaporator, the residue was dissolved in 0.05 M phosphate buffer (150 μL, pH 6.5), stirred for one hour and shook for two hours. After one night, the solution was filtered using a microtiter filter plate. Then the filtrate and its 1/10 dilution were analyzed by HPLC-UV. In addition, a four-point calibration curve was prepared from the 10 mM stock solutions and used for the solubility determination of the compounds.

[2] = test system: K. pneumoniae (ATCC10031); assay: 50% growth inhibitory concentration (IC50) determination assay, K. pneumoniae; assay type: cell-based; conditions: Klebsiella pneumoniae, growth inhibition, Iso-Sensitest broth, OD 600 nm over 16 h, * = detection limit
Method: (§1) The in vitro antimicrobial activity of the compounds against E. coli (BW25113, obtained from Coli Genetic Stock Center, #7636) and K. pneumoniae (ATCC10031) was determined according to the following procedure:
(§2) The assay used a 10-points Iso-Sensitest broth medium to measure quantitatively the in vitro activity of the compounds against E. coli BW25113 and K. pneumoniae ATCC 10031.
(§3) Stock compounds in DMSO were serially two-fold diluted (range from 50 to 0.097 μM final concentration) in 384 wells microtiter plates and inoculated with 49 μL the bacterial suspension in Iso-Sensitest broth medium to have a final cell concentration of ˜5×10^5 CFU/mL in a final volume/well of 50 μL/well. Microtiter plates were incubated at 35±2° C.
(§4) Bacterial cell growth was determined with the measurement of optical density at k=600 nm each 20 minutes over a time course of 16 h.
(§5) Growth inhibition was calculated during the logarithmic growth of the bacterial cells with determination of the concentration inhibiting 50% (IC50) of the growth.

[3] = test system: E. coli (BW25113); assay: 50% growth inhibitory concentration (IC50) determination assay, E. coli; assay type: cell-based; conditions: Escherichia coli, growth inhibition, Iso-Sensitest broth, OD 600 nm over 16 h, 35±2° C., read-out: IC50 (μM) E. coli K12 BW25113
Method: as §1, §2, §3, §4, §5

[4] = test system: E. coli (ATCC 25922); assay: Minimal Inhibitory Concentration (MIC) assay; assay type: cell-based; conditions: Escherichia coli, ATCC25922; CAMHB, 20 hours at 35° C.; read-out: MIC (μg/mL) E. coli ATCC 25922
Method: The in vitro potency of compounds to inhibit E. coli (ATCC 25922) growth was assessed by MIC (Minimal Inhibitory Concentration) assay. Samples were prepared from 10 mM DMSO stock solutions. After serial 2-fold dilution in DMSO in a master plate (Greiner, Cat No: 651201), 180 μL sterile distilled water was added to 20 μL each aliquot of the samples. Then […], diluted compounds were transferred into a new assay plate (Costar, 3599).
The growth medium […] Mueller Hinton Broth (CAMHB) was prepared by adding the 20 mg per liter CaCl2) and 20 mg per liter MgCl2 into the MHB medium (Jianglai Company, sterilized).
Vials of each of the test microorganisms were maintained frozen in the vapor phase of a liquid nitrogen freezer. Took out the bacteria E. coli ATCC 25922 (KWIKSTIK, 0335K) from liquid nitrogen freezer, thawed it in room temperature, and diluted the bacterial in the CAMHB medium to achieve a final inoculum of 5×10^5 CFU/mL. 90 μL CAMHB with bacteria was dispensed to the assay plate and pipetted 5 times.
Then the assay plates were incubated for 20 hours at 35° C. in ambient air. Following incubation, the MIC (μg/mL), the lowest concentration of drug that inhibits visible growth of the microorganism was read and recorded throw the microscope.

SMILES | solubility thermodynamic [1] [µg/mL] | IC50 [2] [µM] | IC50 [3] [µM] | MIC [4] [µg/mL]
CNc1cc(F)c(F)c2c1[nH]c1ncc(-c3cc(CN4CCOCC4)c4ncc(C(=O)O)c(=O)n4c3)c(N3CCCC3)c12 [Example 2.04, 7-[5,6-Difluoro-8-(methylamino)-4-pyrrolidin-1-yl-9H-pyrido[2,3-b]indol-3-yl]-9-(morpholinomethyl)-4-oxo-pyrido[1,2-a]pyrimidine-3-carboxylic acid] | 91 (≈ 154 µM) | 0.22 | 1.21 | 0.0432 (≈ 0.0733 µM)
CNc1cc(F)c(F)c2c1[nH]c1ncc(-c3cc(C)c4ncc(C(=O)O)c(=O)n4c3)c(C3CC3)c12 [Example 3.01, 7-[4-Cyclopropyl-5,6-difluoro-8-(methylamino)-9H-pyrido[2,3-b]indol-3-yl]-9-methyl-4-oxo-pyrido[1,2-a]pyrimidine-3-carboxylic Acid] |  | 0.11 | 0.808 | 0.594 (≈ 1.25 µM)
CNc1c(F)cc(F)c2c1[nH]c1ncc(-c3ccc4ncc(C(=O)O)c(=O)n4c3)c(N(C)C)c12 [Example 1.17, 7-(4-(Dimethylamino)-5,7-difluoro-8-(methylamino)-9H-pyrido[2,3-b]indol-3-yl)-4-oxo-4H-pyrido[1,2-a]pyrimidine-3-carboxylic acid] | 60 (≈ 129 µM) | ≤ 0.098 | 0.497 | 0.0847 (≈ 0.182 µM)
CNc1cc(F)cc2c1[nH]c1ncc(-c3ccc4ncc(C(=O)O)c(=O)n4c3)c(N3CCC(CN(C)C4CC4)C3)c12 (stereo not drawn) [Example 1.21, 7-(4-(3-((cyclopropyl(methyl)amino)methyl)pyrrolidin-1-yl)-6-fluoro-8-(methylamino)-9H-pyrido[2,3-b]indol-3-yl)-4-oxo-4H-pyrido[1,2-a]pyrimidine-3-carboxylic acid] | 230 (≈ 414 µM) | 0.155 | 4.78 | 0.392 (≈ 0.706 µM)
CNc1cc(F)c(Cl)c2c1[nH]c1ncc(-c3ccc4ncc(C(=O)O)c(=O)n4c3)c(N(C)C)c12 [Example 1.23, 7-(5-Chloro-4-(dimethylamino)-6-fluoro-8-(methylamino)-9H-pyrido[2,3-b]indol-3-yl)-4-oxo-4H-pyrido[1,2-a]pyrimidine-3-carboxylic acid] |  | ≤ 0.098 | 0.458 | 0.0871 (≈ 0.181 µM)
CNc1cc(F)c(F)c2c1[nH]c1ncc(-c3cc(C)c4ncc(C(=O)O)c(=O)n4c3)c(N(C)C)c12 [Example 1.02, 7-[4-(Dimethylamino)-5,6-difluoro-8-(methylamino)-9H-pyrido[2,3-b]indol-3-yl]-9-methyl-4-oxo-pyrido[1,2-a]pyrimidine-3-carboxylic acid] |  | ≤ 0.098 | 0.262 | 0.598 (≈ 1.25 µM)

Further molecules by falling IC50 [2], results first:

solubility thermodynamic [1] [µg/mL] | IC50 [2] [µM] | IC50 [3] [µM] | MIC [4] [µg/mL] | SMILES
 | 0.319 | 0.885 | 0.0911 (≈ 0.158 µM) | CNc1cc(F)c(F)c2c1[nH]c1ncc(-c3cc(N4CCOCC4)c4ncc(C(=O)O)c(=O)n4c3)c(N3CCCC3)c12 [Example 1.07, 7-[5,6-Difluoro-8-(methylamino)-4-pyrrolidin-1-yl-9H-pyrido[2,3-b]indol-3-yl]-9-morpholino-4-oxo-pyrido[1,2-a]pyrimidine-3-carboxylic acid]
 | 0.187 | 0.828 | 0.122 (≈ 0.222 µM) | CNc1cc(F)c(F)c2c1[nH]c1ncc(-c3cc(N4CCOCC4)c4ncc(C(=O)O)c(=O)n4c3)c(N(C)C)c12 [Example 1.06, 7-[4-(Dimethylamino)-5,6-difluoro-8-(methylamino)-9H-pyrido[2,3-b]indol-3-yl]-9-morpholino-4-oxo-pyrido[1,2-a]pyrimidine-3-carboxylic acid]
 | 0.183 | 1.97 | 0.169 (≈ 0.365 µM) | CNc1cc(Cl)cc2c1[nH]c1ncc(-c3ccc4ncc(C(=O)O)c(=O)n4c3)c(N(C)C)c12 [Example 1.16, 7-(6-Chloro-4-(dimethylamino)-8-(methylamino)-9H-pyrido[2,3-b]indol-3-yl)-4-oxo-4H-pyrido[1,2-a]pyrimidine-3-carboxylic acid]
